{
  "source": "patent US20090076098A1",
  "about": "“METHODS, KITS, AND COMPOUNDS FOR DETERMINING RESPONSIVENESS TO TREATMENT OF A PATHOLOGICAL DISORDER BY EPOTHILONES” (priority 2007, published 2009)",
  "key": {"[1]": {"system": "non small cell lung cancer (NSCLC) xenograft models", "type": "in vivo", "conditions": "for percentage of tumors with a T/C ratio<20%: share of models; for percentage of responses overall (T/C): share of models responding", "method": "FIG. 1: Preclinical lung cancer study design: 22 non small cell lung cancer (NSCLC) xenograft models were derived from patients primary tumors directly after surgery; at low murine passages response to Sagopilone and standard chemotherapy was assessed and samples grouped into responders and non-responders. RNA from untreated control tumors was subjected to Affymetrix gene expression analysis for discrimination of gene expression levels at baseline with tumor response.\nLung cancer xenograft models were established by subcutaneously transplanting fresh tumor material from NSCLC patients into nude mice. Tumor types included pleomorphic carcinoma (7187, 7336), squamous cell carcinoma (7126, 7177, 7298, 7343, 7462, 7433, 7530), dedifferentiated carcinoma (7668), adenocarcinoma (7064, 7198, 7406, 7387, 7466, 7612) and small cell lung cancer ([…]).\nAntitumor activity was determined using either the reduction in tumor area in treated versus control mice (T/C ratio), or the mean change in absolute tumor volume compared with volume at baseline (day of first treatment).\n1° lung cancer biopsies obtained from patients with established cancer were transplanted into nude mice. Tumor growth curves for the treatment with Etoposide, Carboplatin, Gemcitabine, Taxol, Navelbine, Cetuximab, Erlotinib und Sagopilone were generated. Mutation status of p53 was analyzed in the models according to methods known in the art. Fourteen Sagopilone responders and eight Sagopilone non-responders were characterized in long-term experiments. A PBS control group was treated with PBS or Sagopilone for 24 hrs before sacrifice. RNA for Sagopilone responder and non-responder models were isolated according to methods known in the art and were hybridized onto arrays according to the manufacturer's instructions."}, "A549 NSCLC cells": {"system": "A549 NSCLC cells", "test": "A549 NSCLC xenograft in nude mice: Sagopilone combined with acetazolamide", "type": "in vivo", "conditions": "acetazolamide 40 mg/day p.o. with Sagopilone 6 or 8 mg/kg, FIG. 11", "method": "FIG. 11: A549 NSCLC cells were xenotransplanted into nude mice. Mice were treated starting on day 7 after tumor transplantation as indicated: Sagopilone 6 mg/kg or 8 mg/kg were given on days 17, 32 and 45 after transplantation as indicated by arrows, acetazolamide 40 mg/day p.o. was given either daily or twice a day for five days starting on the day of Sagopilone administration (2 h before and 2 h after application of Sagopilone)."}, "[2]": {"conditions": "22 NSCLC xenograft models, FIG. 4, count"}},
  "note": "Several values for one entry are separate records, joined by “and”; a condition that tells them apart may be missing. Identical values can stand only once.",
  "data": [
    {"smiles": "CC(=O)O[C@H]1C(=O)[C@@]2(C)[C@H]([C@H](OC(=O)c3ccccc3)[C@]3(O)C[C@H](OC(=O)[C@H](O)[C@@H](NC(=O)c4ccccc4)c4ccccc4)C(C)=C1C3(C)C)[C@]1(OC(C)=O)CO[C@@H]1C[C@@H]2O", "note": "[Paclitaxel]", "values": [
      {"measurement": "percentage of tumors with a T/C ratio<20%", "setting": "[1]; lung cancer xenografts", "result": 56.2, "unit": "%"},
      {"measurement": "percentage of responses overall (T/C)", "setting": "[1]; lung cancer xenografts", "result": 81.2, "unit": "%"}
    ]},
    {"smiles": "C=CC[C@H]1C(=O)C(C)(C)[C@@H](O)CC(=O)O[C@H](c2ccc3sc(C)nc3c2)C[C@@H]2O[C@]2(C)CCC[C@H](C)[C@@H]1O", "note": "[Sagopilone, (1S,3S,7S,10R,11S,12S,16R)-7,11-Dihydroxy-10-allyl-8,8,12,16-tetramethyl-3-(2-methyl-benzothiazol-5-yl)-4,17-dioxa-bicyclo[14.1.0]heptadecane-5,9-dione]", "values": [
      {"measurement": "samples with stable disease", "setting": "[1]; [2]", "result": "three"},
      {"measurement": "samples with tumor regression", "setting": "[1]; [2]", "result": "Eleven"},
      {"measurement": "models being non-responders (tumor progression), clinical criteria", "setting": "[1]; 22 NSCLC xenograft models, count of models", "result": "eight"},
      {"measurement": "models showing response / tumor growth inhibition by T/C value", "setting": "[1]; 22 lung cancer xenografts, tumor volume treated vs control, count of models", "result": "22 and 22 of 22"},
      {"measurement": "number of NSCLC with a T/C ratio<20%", "setting": "[1]; lung cancer xenografts, count of models", "result": 12},
      {"measurement": "percentage of tumors with a T/C ratio<20%", "setting": "[1]; lung cancer xenografts", "result": 76.5, "unit": "%"},
      {"measurement": "response of xenograft model Lu7198", "setting": "[1]; model Lu7198, FIG. 3B", "result": "tumor progression"},
      {"measurement": "response of xenograft model Lu7298", "setting": "[1]; model Lu7298, FIG. 3A", "result": "tumor shrinkage"},
      {"measurement": "activity and tolerability compared with commonly used cytotoxic agents in NSCLC", "setting": "[1]; vs carboplatin, paclitaxel, gemcitabine, etoposide, vinorelbine, in words", "result": "superior activity and tolerability"}
    ]},
    {"smiles": "CC(=O)Nc1nnc(S(N)(=O)=O)s1", "note": "[acetazolamide]", "values": [
      {"measurement": "effect of combination with an epothilone on tumor response", "setting": "A549 NSCLC cells", "result": "sensitization"}
    ]},
    {"smiles": "N.N.O=C([O-])C1(C(=O)[O-])CCC1.[Pt+2]", "note": "[carboplatin]", "values": [
      {"measurement": "percentage of tumors with a T/C ratio<20%", "setting": "[1]; lung cancer xenografts", "result": 25.0, "unit": "%"},
      {"measurement": "percentage of responses overall (T/C)", "setting": "[1]; lung cancer xenografts", "result": 68.8, "unit": "%"}
    ]},
    {"smiles": "Nc1ccn([C@@H]2O[C@H](CO)[C@@H](O)C2(F)F)c(=O)n1", "note": "[gemcitabine]", "values": [
      {"measurement": "response (percentage of models), criteria not given", "setting": "[1]; lung cancer xenografts, b271, FIGS. 2a and 2b", "result": 61.5, "unit": "%"},
      {"measurement": "percentage of tumors with a T/C ratio<20%", "setting": "[1]; lung cancer xenografts", "result": 47.0, "unit": "%"},
      {"measurement": "percentage of responses overall (T/C)", "setting": "[1]; lung cancer xenografts", "result": 80.0, "unit": "%"},
      {"measurement": "models in which at least 2 animals per group (n=6) could not be evaluated due to toxicity", "setting": "[1]; mouse, in vivo", "result": "seven"},
      {"measurement": "toxicity in xenograft-bearing mice", "setting": "[1]; mouse, in vivo", "result": "marked toxicity"},
      {"measurement": "models in which toxicity prevented evaluation of any mice", "setting": "[1]; nude, mouse, in vivo", "result": 2}
    ]}
  ]
}
